# According to ChEMBL document CHEMBL1145390, “Synthesis and preliminary biological characterization of new semisynthetic derivatives of ramoplanin” (J Med Chem, 2007):
# Assays:
# [1] = Toxicity assessed as hemolysis in erythrocytes at 200 mg/L; format: cell-based, Erythrocyte; settings: human, read-out: Activity
# [2] = Toxicity assessed as hemolysis in erythrocytes at 100 mg/L; format: cell-based, Erythrocyte; settings: human, read-out: Activity
# Enterococcus faecalis [3] = assay: Antibacterial activity against Enterococcus faecalis after 24 hrs by broth microdilution method; format: functional; settings: read-out: MIC
# Enterococcus faecalis [4] = assay: Antibacterial activity against vancomycin-resistant Enterococcus faecalis in presence of 30% bovine serum after 24 hrs by broth microdilution method; format: functional
# Enterococcus faecium [5] = assay: Antibacterial activity against Enterococcus faecium after 24 hrs by broth microdilution method; format: functional; settings: read-out: MIC
# Staphylococcus aureus [6] = assay: Antibacterial activity against Staphylococcus aureus Smith after 24 hrs by broth microdilution method; format: functional; settings: read-out: MIC
# Enterococcus faecium [7] = assay: Antibacterial activity against vancomycin A-resistant Enterococcus faecium clinical isolate in presence of 30% bovine serum after 24 hrs by broth microdilution method; format: functional
# Streptococcus pyogenes = assay: Antibacterial activity against Streptococcus pyogenes C203 after 24 hrs by broth microdilution method; format: functional; settings: C203, 24 h, read-out: MIC
# [8] = Toxicity assessed as hemolysis in erythrocytes at 400 mg/L; format: cell-based, Erythrocyte; settings: human, read-out: Activity
# Enterococcus faecalis [9] = assay: Antibacterial activity against vancomycin A-resistant Enterococcus faecalis after 24 hrs by broth microdilution method; format: functional; settings: read-out: MIC
# Escherichia coli = assay: Antibacterial activity against Escherichia coli SKF-12140 after 24 hrs by broth microdilution method; format: functional; settings: read-out: MIC
# Staphylococcus aureus [10] = assay: Antibacterial activity against methicillin-resistant Staphylococcus aureus clinical isolate after 24 hrs by broth microdilution method; format: functional; settings: read-out: MIC
# Staphylococcus aureus [11] = assay: Antibacterial activity against vancomycin-intermediate resistant Staphylococcus aureus clinical isolate after 24 hrs by broth microdilution method; format: functional
# Candida albicans = assay: Antifungal activity against Candida albicans SKF-2270 after 24 hrs by broth microdilution method; format: functional; settings: read-out: MIC
# Enterococcus faecium [12] = assay: Antibacterial activity against vancomycin A-resistant Enterococcus faecium clinical isolate after 24 hrs by broth microdilution method; format: functional; settings: read-out: MIC
# Staphylococcus aureus [13] = assay: Antibacterial activity against vancomycin-intermediate resistant Staphylococcus aureus clinical isolate in presence of 30% bovine serum after 24 hrs by broth microdilution method; format: functional
# [14] = Toxicity assessed as hemolysis in erythrocytes at 800 mg/L; format: cell-based, Erythrocyte; settings: human, read-out: Activity
# [15] = Toxicity assessed as hemolysis in erythrocytes at 1600 mg/L; format: cell-based, Erythrocyte; settings: human, read-out: Activity
# Staphylococcus aureus [16] = assay: Antibacterial activity against methicillin-resistant and vancomycin-intermediate resistant Staphylococcus aureus clinical isolate after 24 hrs by broth microdilution method; format: functional; settings: read-out: MIC
# Staphylococcus aureus [17] = assay: Antibacterial activity against Staphylococcus aureus Smith in presence of 30% bovine serum after 24 hrs by broth microdilution method; format: functional
# [18] = Toxicity assessed as hemolysis in erythrocytes at 90 mg/L; format: cell-based, Erythrocyte; settings: human, erythrocytes; read-out: Activity
# [19] = Toxicity assessed as hemolysis in erythrocytes at 180 mg/L; format: cell-based, Erythrocyte; settings: human, erythrocytes; read-out: Activity
SMILES,hemolysis at 200 mg/L [1] [%],hemolysis at 100 mg/L [2] [%],MIC (Enterococcus faecalis [3]) [µg/mL],MIC (Enterococcus faecalis [4]) [µg/mL],MIC (Enterococcus faecium [5]) [µg/mL],MIC (Staphylococcus aureus [6]) [µg/mL],MIC (Enterococcus faecium [7]) [µg/mL],MIC (Streptococcus pyogenes) [µg/mL],hemolysis at 400 mg/L [8] [%],MIC (Enterococcus faecalis [9]) [µg/mL],MIC (Escherichia coli) [µg/mL],MIC (Staphylococcus aureus [10]) [µg/mL],MIC (Staphylococcus aureus [11]) [µg/mL],MIC (Candida albicans) [µg/mL],MIC (Enterococcus faecium [12]) [µg/mL],MIC (Staphylococcus aureus [13]) [µg/mL],hemolysis at 800 mg/L [14] [%],hemolysis at 1600 mg/L [15] [%],MIC (Staphylococcus aureus [16]) [µg/mL],MIC (Staphylococcus aureus [17]) [µg/mL],other results
Cc1ccccc1CC(=O)N[C@@H](CC(N)=O)C(=O)NC[C@@H]1C(=O)N[C@H](c2ccc(O)cc2)C(=O)N[C@H](CCCN)C(=O)N[C@H](C(C)C)C(=O)N[C@@H](c2ccc(O)cc2)C(=O)N[C@H](c2ccc(O)cc2)C(=O)N[C@@H]([C@@H](C)O)C(=O)N[C@@H](Cc2ccccc2)C(=O)N[C@H](CCCN)C(=O)N[C@@H](c2ccc(O[C@H]3O[C@H](CO)[C@@H](O)[C@H](O)[C@@H]3O[C@H]3O[C@H](CO)[C@@H](O)[C@H](O)[C@@H]3O)cc2)C(=O)N[C@H]([C@@H](C)O)C(=O)N[C@@H](c2ccc(O)cc2)C(=O)NCC(=O)N[C@@H](CC(C)C)C(=O)N[C@H](C)C(=O)N[C@@H](c2ccc(O)c(Cl)c2)C(=O)O[C@@H]1C(N)=O,1,1,0.5,0.5,0.5,≤ 0.125,1,≤ 0.125,1,0.25,> 128,≤ 0.125,1,> 128,0.5,1,2,5,2,0.25,–
Cc1ccccc1C(=O)N[C@@H](CC(N)=O)C(=O)NC[C@@H]1C(=O)N[C@H](c2ccc(O)cc2)C(=O)N[C@H](CCCN)C(=O)N[C@H](C(C)C)C(=O)N[C@@H](c2ccc(O)cc2)C(=O)N[C@H](c2ccc(O)cc2)C(=O)N[C@@H]([C@@H](C)O)C(=O)N[C@@H](Cc2ccccc2)C(=O)N[C@H](CCCN)C(=O)N[C@@H](c2ccc(O[C@H]3O[C@H](CO)[C@@H](O)[C@H](O)[C@@H]3O[C@H]3O[C@H](CO)[C@@H](O)[C@H](O)[C@@H]3O)cc2)C(=O)N[C@H]([C@@H](C)O)C(=O)N[C@@H](c2ccc(O)cc2)C(=O)NCC(=O)N[C@@H](CC(C)C)C(=O)N[C@H](C)C(=O)N[C@@H](c2ccc(O)c(Cl)c2)C(=O)O[C@@H]1C(N)=O,17,2,2,2,2,1,≤ 0.125,≤ 0.125,83,2,> 128,1,8,> 128,4,4,94,93,8,1,–
CCCCC(CC)C(=O)N[C@@H](CC(N)=O)C(=O)NC[C@@H]1C(=O)N[C@H](c2ccc(O)cc2)C(=O)N[C@H](CCCN)C(=O)N[C@H](C(C)C)C(=O)N[C@@H](c2ccc(O)cc2)C(=O)N[C@H](c2ccc(O)cc2)C(=O)N[C@@H]([C@@H](C)O)C(=O)N[C@@H](Cc2ccccc2)C(=O)N[C@H](CCCN)C(=O)N[C@@H](c2ccc(O[C@H]3O[C@H](CO)[C@@H](O)[C@H](O)[C@@H]3O[C@H]3O[C@H](CO)[C@@H](O)[C@H](O)[C@@H]3O)cc2)C(=O)N[C@H]([C@@H](C)O)C(=O)N[C@@H](c2ccc(O)cc2)C(=O)NCC(=O)N[C@@H](CC(C)C)C(=O)N[C@H](C)C(=O)N[C@@H](c2ccc(O)c(Cl)c2)C(=O)O[C@@H]1C(N)=O (some centres undefined),4,0,0.5,1,0.5,0.25,1,≤ 0.125,8,0.25,> 128,0.25,1,> 128,0.5,2,73,83,2,0.5,–
CC(C)C[C@@H]1NC(=O)CNC(=O)[C@H](c2ccc(O)cc2)NC(=O)[C@@H]([C@@H](C)O)NC(=O)[C@H](c2ccc(O[C@H]3O[C@H](CO)[C@@H](O)[C@H](O)[C@@H]3O[C@H]3O[C@H](CO)[C@@H](O)[C@H](O)[C@@H]3O)cc2)NC(=O)[C@@H](CCCN)NC(=O)[C@H](Cc2ccccc2)NC(=O)[C@H]([C@@H](C)O)NC(=O)[C@@H](c2ccc(O)cc2)NC(=O)[C@H](c2ccc(O)cc2)NC(=O)[C@@H](C(C)C)NC(=O)[C@@H](CCCN)NC(=O)[C@@H](c2ccc(O)cc2)NC(=O)[C@@H](CNC(=O)[C@H](CC(N)=O)NC(=O)Cc2cccc3ccccc23)[C@@H](C(N)=O)OC(=O)[C@H](c2ccc(O)c(Cl)c2)NC(=O)[C@@H](C)NC1=O.Cl,30,–,≤ 0.06,0.25,0.125,≤ 0.06,0.5,≤ 0.06,60,≤ 0.06,> 128,≤ 0.06,0.25,> 128,≤ 0.06,1,98,–,2,0.25,hemolysis at 90 mg/L [18]: 15%; hemolysis at 180 mg/L [19]: 28%
CC/C=C/C=C\CC(=O)N[C@@H](CC(N)=O)C(=O)NC[C@@H]1C(=O)N[C@H](c2ccc(O)cc2)C(=O)N[C@H](CCCN)C(=O)N[C@H](C(C)C)C(=O)N[C@@H](c2ccc(O)cc2)C(=O)N[C@H](c2ccc(O)cc2)C(=O)N[C@@H]([C@@H](C)O)C(=O)N[C@@H](Cc2ccccc2)C(=O)N[C@H](CCCN)C(=O)N[C@@H](c2ccc(O[C@H]3O[C@H](CO)[C@@H](O)[C@H](O)[C@@H]3O[C@H]3O[C@H](CO)[C@@H](O)[C@H](O)[C@@H]3O)cc2)C(=O)N[C@H]([C@@H](C)O)C(=O)N[C@@H](c2ccc(O)cc2)C(=O)NCC(=O)N[C@@H](CC(C)C)C(=O)N[C@H](C)C(=O)N[C@@H](c2ccc(O)c(Cl)c2)C(=O)O[C@@H]1C(N)=O,45,38,0.5,0.5,0.5,0.25,1,≤ 0.125,51,0.25,> 128,0.25,1,> 128,0.25,2,96,–,2,0.5,–
